Assay results taken from PubChem BioAssay AID1963960 (Molecular Pharmacology Branch, DTP, NCI, 2024).

Tested on: MDA-MB-468 spheroids with HUVEC/MSC, viability
Assay: Anticancer human tumor MDA-MB-468 cell line growth inhibition [PI3K];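 also: spheroids exposed to agents for seven days before readout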;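 as to viability, T/C: 100% = DMSO vehicle control viability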
Conditions: for viability, T/C: stronger effect = lower value; active = viability on the fitted dose curve at most 10% of control; inactive = the rest
Method in brief: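 Targeted small molecules plus PI3K inhibitors, half-log dose series from Cmax (default top 10 microM), were applied to heterotypic spheroids of cancer cells with HUVEC and MSCs. Viability indicated growth inhibition.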

[1] = curve of first compound, second compound 0.0316 µM
[2] = curve of first compound, second compound 0.1 µM
[3] = curve of first compound, second compound 0.316 µM
[4] = curve of first compound, second compound 1 µM
[5] = curve of first compound, second compound 3.16 µM
[6] = curve of first compound, second compound 10 µM
[7] = second compound 0.0316 µM, first compound 0.0316 µM
[8] = second compound 0.0316 µM, first compound 0.1 µM
[9] = second compound 0.0316 µM, first compound 0.316 µM
[10] = second compound 0.0316 µM, first compound 1 µM
[11] = second compound 0.0316 µM, first compound 3.16 µM
[12] = second compound 0.0316 µM, first compound 10 µM
[13] = second compound 0.1 µM, first compound 0.0316 µM
[14] = second compound 0.1 µM, first compound 0.1 µM
[15] = second compound 0.1 µM, first compound 0.316 µM
[16] = second compound 0.1 µM, first compound 1 µM
[17] = second compound 0.1 µM, first compound 3.16 µM
[18] = second compound 0.1 µM, first compound 10 µM
[19] = second compound 0.316 µM, first compound 0.0316 µM
[20] = second compound 0.316 µM, first compound 0.1 µM
[21] = second compound 0.316 µM, first compound 0.316 µM
[22] = second compound 0.316 µM, first compound 1 µM
[23] = second compound 0.316 µM, first compound 3.16 µM
[24] = second compound 0.316 µM, first compound 10 µM
[25] = second compound 1 µM, first compound 0.0316 µM
[26] = second compound 1 µM, first compound 0.1 µM
[27] = second compound 1 µM, first compound 0.316 µM
[28] = second compound 1 µM, first compound 1 µM
[29] = second compound 1 µM, first compound 3.16 µM
[30] = second compound 1 µM, first compound 10 µM
[31] = second compound 3.16 µM, first compound 0.0316 µM
[32] = second compound 3.16 µM, first compound 0.1 µM
[33] = second compound 3.16 µM, first compound 0.316 µM
[34] = second compound 3.16 µM, first compound 1 µM
[35] = second compound 3.16 µM, first compound 3.16 µM
[36] = second compound 3.16 µM, first compound 10 µM
[37] = second compound 10 µM, first compound 0.0316 µM
[38] = second compound 10 µM, first compound 0.1 µM
[39] = second compound 10 µM, first compound 0.316 µM
[40] = second compound 10 µM, first compound 1 µM
[41] = second compound 10 µM, first compound 3.16 µM
[42] = second compound 10 µM, first compound 10 µM

C=CC(=O)N1CCN(c2nc(=O)n(-c3c(C)ccnc3C(C)C)c3nc(-c4c(O)cccc4F)c(F)cc23)C(C)C1 (stereo unspecified) + CC(Nc1ncnc2nc[nH]c12)c1cc2cccc(Cl)c2c(=O)n1-c1ccccc1
inactive: viability, T/C [7] 88.1% | viability, T/C [8] 93% | viability, T/C [9] 99.4% | viability, T/C [10] 99.3% | viability, T/C [11] 86.1% | viability, T/C [12] 74.2% | viability, T/C [13] 89.3% | viability, T/C [14] 79.8% | viability, T/C [15] 83.7% | viability, T/C [16] 94.2% | viability, T/C [17] 91.1% | viability, T/C [18] 73.7% | viability, T/C [19] 70.4% | viability, T/C [20] 74.4% | viability, T/C [21] 84.3% | viability, T/C [22] 94.7% | viability, T/C [23] 76.9% | viability, T/C [24] 61.4% | viability, T/C [25] 70.6% | viability, T/C [26] 61.4% | viability, T/C [27] 82.2% | viability, T/C [28] 84.6% | viability, T/C [29] 84.4% | viability, T/C [30] 60.6% | viability, T/C [31] 54.5% | viability, T/C [32] 57.1% | viability, T/C [33] 61.4% | viability, T/C [34] 68.5% | viability, T/C [35] 70.6% | viability, T/C [36] 51% | viability, T/C [37] 41% | viability, T/C [38] 46.7% | viability, T/C [39] 47.1% | viability, T/C [40] 51.1% | viability, T/C [41] 50.1% | viability, T/C [42] 37.4%
> 10000 nM: IC50 [1] | IC50 [2] | IC50 [3] | IC50 [4] | IC50 [5]
< 31.6 nM: IC50 [6]

Cc1nc(NC(=O)N2CCCC2C(N)=O)sc1-c1ccnc(C(C)(C)C(F)(F)F)c1 (stereo unspecified)
inactive: viability, T/C (compound 0.0316 µM) 89% [middle of 8 runs] | viability, T/C (compound 0.1 µM) 83.7% [middle of 8 runs] | viability, T/C (compound 0.316 µM) 81.1% [middle of 8 runs] | viability, T/C (compound 1 µM) 77.9% [middle of 8 runs] | viability, T/C (compound 3.16 µM) 70.2% [middle of 7 runs] | viability, T/C (compound 10 µM) 44.1% [middle of 8 runs]

CCN1CCN(Cc2ccc(Nc3ncc(F)c(-c4cc(F)c5nc(C)n(C(C)C)c5c4)n3)nc2)CC1 + Cc1nc(NC(=O)N2CCCC2C(N)=O)sc1-c1ccnc(C(C)(C)C(F)(F)F)c1
> 1000 nM: IC50 [1] | IC50 [2] | IC50 [3]
< 3.16 nM: IC50 [6]
inactive: viability, T/C (second compound 0.0316 µM, first compound 0.00316 µM) 97.9% | viability, T/C (second compound 0.0316 µM, first compound 0.01 µM) 90% | viability, T/C [7] 83.8% | viability, T/C [8] 113% | viability, T/C [9] 90.8% | viability, T/C [10] 59.9% | viability, T/C (second compound 0.1 µM, first compound 0.00316 µM) 98.3% | viability, T/C (second compound 0.1 µM, first compound 0.01 µM) 85.9% | viability, T/C [13] 89.1% | viability, T/C [14] 104% | viability, T/C [15] 97.9% | viability, T/C [16] 55.3% | viability, T/C (second compound 0.316 µM, first compound 0.00316 µM) 92.4% | viability, T/C (second compound 0.316 µM, first compound 0.01 µM) 94% | viability, T/C [19] 93.2% | viability, T/C [20] 81.3% | viability, T/C [21] 80.9% | viability, T/C [22] 52.7% | viability, T/C (second compound 1 µM, first compound 0.00316 µM) 94.9% | viability, T/C (second compound 1 µM, first compound 0.01 µM) 84.8% | viability, T/C [25] 77% | viability, T/C [26] 76.9% | viability, T/C [27] 62.1% | viability, T/C [28] 46.2% | viability, T/C (second compound 3.16 µM, first compound 0.00316 µM) 68.7% | viability, T/C (second compound 3.16 µM, first compound 0.01 µM) 58.7% | viability, T/C [31] 61.1% | viability, T/C [32] 64.8% | viability, T/C [33] 37.7% | viability, T/C [34] 41.6% | viability, T/C (second compound 10 µM, first compound 0.00316 µM) 39.1% | viability, T/C (second compound 10 µM, first compound 0.01 µM) 27.3% | viability, T/C [37] 29.8% | viability, T/C [38] 25.3% | viability, T/C [39] 22% | viability, T/C [40] 23.5%
798 nM: IC50 [4]
191 nM: IC50 [5]

Cn1ncc(Cl)c1-c1cc(C(=O)NC(CN)Cc2cccc(F)c2)sc1Cl (stereo unspecified) + COc1c(OCCCN2CCOCC2)ccc2c3n(c(=NC(=O)c4cnc(N)nc4)nc12)CCN3
inactive: viability, T/C (second compound 0.00316 µM, first compound 0.0316 µM) 78.5% | viability, T/C (second compound 0.00316 µM, first compound 0.1 µM) 66.2% | viability, T/C (second compound 0.00316 µM, first compound 0.316 µM) 50.1% | viability, T/C (second compound 0.00316 µM, first compound 1 µM) 36.1% | viability, T/C (second compound 0.00316 µM, first compound 3.16 µM) 25.3% | viability, T/C (second compound 0.00316 µM, first compound 10 µM) 17.2% | viability, T/C (second compound 0.01 µM, first compound 0.0316 µM) 71.8% | viability, T/C (second compound 0.01 µM, first compound 0.1 µM) 64.2% | viability, T/C (second compound 0.01 µM, first compound 0.316 µM) 42.7% | viability, T/C (second compound 0.01 µM, first compound 1 µM) 33.2% | viability, T/C (second compound 0.01 µM, first compound 3.16 µM) 22.9% | viability, T/C (second compound 0.01 µM, first compound 10 µM) 14.6% | viability, T/C [7] 66.5% | viability, T/C [8] 58.7% | viability, T/C [9] 37.2% | viability, T/C [10] 28.5% | viability, T/C [11] 22.1% | viability, T/C [12] 12.1% | viability, T/C [13] 49.6% | viability, T/C [14] 40% | viability, T/C [15] 33.9% | viability, T/C [16] 25.4% | viability, T/C [17] 17.5% | viability, T/C [19] 25.1% | viability, T/C [20] 21.1% | viability, T/C [21] 20.4% | viability, T/C [22] 14.9% | viability, T/C [23] 12.7%
active: viability, T/C [18] 7.31% | viability, T/C [24] 4.16% | viability, T/C [25] 3.44% | viability, T/C [26] 3.28% | viability, T/C [27] 3.02% | viability, T/C [28] 3.44% | viability, T/C [29] 3.8% | viability, T/C [30] 1.32%
236 nM: IC50 (curve of first compound, second compound 0.01 µM)
152 nM: IC50 [1]
< 31.6 nM: IC50 [2] | IC50 [3] | IC50 [4]
331 nM: IC50 (curve of first compound, second compound 0.00316 µM)

C#Cc1c(F)ccc2cc(O)cc(-c3ncc4c(N5CC6CCC(C5)N6)nc(OCC56CCCN5CC(F)C6)nc4c3F)c12 (stereo unspecified) + Cc1nc(NC(=O)N2CCCC2C(N)=O)sc1-c1ccnc(C(C)(C)C(F)(F)F)c1
960 nM: IC50 [5]
active: viability, T/C [36] 3.3% | viability, T/C [41] 7.98% | viability, T/C [42] 0.65%
7360 nM: IC50 [2]
3090 nM: IC50 [4]
inactive: viability, T/C [7] 83.2% | viability, T/C [8] 84.4% | viability, T/C [9] 80.2% | viability, T/C [10] 106% | viability, T/C [11] 100% | viability, T/C [12] 52.3% | viability, T/C [13] 91.1% | viability, T/C [14] 89.1% | viability, T/C [15] 88.9% | viability, T/C [16] 101% | viability, T/C [17] 79.9% | viability, T/C [18] 39.2% | viability, T/C [19] 92.4% | viability, T/C [20] 85.6% | viability, T/C [21] 69.9% | viability, T/C [22] 80.9% | viability, T/C [23] 75.6% | viability, T/C [24] 24.7% | viability, T/C [25] 92.4% | viability, T/C [26] 81.8% | viability, T/C [27] 71.8% | viability, T/C [28] 83.3% | viability, T/C [29] 49.4% | viability, T/C [30] 15.8% | viability, T/C [31] 80.5% | viability, T/C [32] 69.3% | viability, T/C [33] 53.4% | viability, T/C [34] 53.4% | viability, T/C [35] 35.4% | viability, T/C [37] 42.2% | viability, T/C [38] 26.6% | viability, T/C [39] 22.3% | viability, T/C [40] 18.9%
< 31.6 nM: IC50 [6]
5640 nM: IC50 [3]
> 10000 nM: IC50 [1]

CC(Nc1ncnc2nc[nH]c12)c1cc2cccc(Cl)c2c(=O)n1-c1ccccc1 (stereo unspecified)
4.95 µM [middle of 8 runs]: IC50 (compound alone, run of 05/09/2023)
inactive: viability, T/C (compound 0.0316 µM) 94% [middle of 8 runs] | viability, T/C (compound 0.1 µM) 93.1% [middle of 8 runs] | viability, T/C (compound 0.316 µM) 81% [middle of 8 runs] | viability, T/C (compound 1 µM) 71.2% [middle of 8 runs] | viability, T/C (compound 3.16 µM) 55.5% [middle of 8 runs] | viability, T/C (compound 10 µM) 40.7% [middle of 8 runs]
